# Patent US11633392B2 (priority 2016, dated 2023)
# Marks after values point to notes of the source that are not given here.
# Assays:
# Metabolic stability test = assay type: in vitro ADME; conditions: liver microsomes; human hepatic microsomes, 0 to 60 minutes; read-out: metabolic clearance CLint
# Experimental: Human hepatic microsomes and a test substance were reacted for a certain period of time (0 to 60 minutes). The test substance, which was not metabolized in the reaction sample, was measured, and remaining ratio was calculated. The test substance-remaining ratio at the time when the reaction time is 0 hour is taken as 100%. The remaining ratio after incubation was plotted against time as a log-linear plot to obtain a regression line (y=100 e^−kt, k=inclination of straight line: clearance rate constant), and metabolic clearance CLint (mL/min/kg) was calculated by using the following equation. CLint*=k(−min)×52.5(mg MS protein/g liver)×26(g liver/kg)/MS protein (mg MS protein/mL) • *: Davies, B. and Morris T., Physiological parameters in laboratory animals and humans, Pharm. Res., 10(7)1093-1095, 1993 (Test Results)
# Wistar male rats = experiment: Rat elevated plus maze test; assay type: in vivo; conditions: oral, 3 mg/kg, 2 hours before test (FIG. 6)
# Experimental: Rat Elevated Plus Maze Test
# Anxiolytic effects of the compounds provided by the present invention were investigated by the rat elevated plus maze test.
# For the test, 7 to 9 weeks old Wistar male rats were used. […] Each test substance was dissolved in a 4.5% aqueous solution of cyclodextrin, and orally administered 2 hours before the start of the test. The test data were automatically analyzed by using video image action analysis software (Smart3.0, PanLab S.L., PanLab), and wall-less running route staying time ratio (%) was calculated.
# human opioid μ receptor = target: T1, human opioid μ receptor (Homo sapiens, UniProt P35372); experiment: Opioid receptor function test (Lance Ultra cAMP Kit), μ receptor; assay type: cell-based; conditions: maximum reaction not reached; maximum concentration 10 μM; DAMGO = 100%
# T1 construct: host or cells: CHO cells
# Experimental: (§1) Opioid Receptor Function Test
# (§2) The functional activities of the compounds provided by the present invention on the μ, δ, and κ opioid receptors were investigated.
# (§3) The test was performed by using Lance Ultra cAMP Kit (PerkinElmer) according to a method predetermined for the kit. In the evaluation of the agonistic activity, CHO cells expressing each of the human opioid receptors (δ, μ, and κ, accession numbers and catalog numbers are mentioned below) and 10 μM of each test compound were reacted for 30 minutes in an assay buffer (1× HBSS, […], pH 7.4, […] (isobutylmethylxanthine), 7.5% BSA) in the presence of forskolin. Subsequently, the cAMP detection reagent included in the kit was added, and 1 hour afterward, time-resolved fluorescence measurement was performed by using the EnVision plate reader (PerkinElmer). The test compounds and the control drugs (δ: SNC80, μ: DAMGO, κ: U-69593) were evaluated in a concentration range of 10^−12 to 10^−5 M, a dose-response curve of each test compound was obtained from the fluorescence values at 665 nm, and EC50 value and the Emax value were calculated. The Emax value was calculated as a ratio of the maximum reaction of the test compound to the maximum reaction of each control drug, which is taken as 100%.
# (§4) • δ: Catalog No. CT4607, Accession No. NM_000911.2 • μ: Catalog No. CT4605, Accession No. NM_000914 • κ: Catalog No. CT4606, Accession No. NM_000912 (ChanTest Corporation)
# C57BL/6N male mice = experiment: Mouse elevated plus maze test; assay type: in vivo; conditions: subcutaneous, dose not stated (FIGS. 3 to 5)
# Experimental: Mouse Elevated Plus Maze Test
# For the test, 5 to 6 weeks old C57BL/6N male mice were used. On a plus maze apparatus consisting of a wall-less running route (open arm, width 6 cm, length 30 cm) and a running route with a wall (closed arm, width 6 cm, length 30 cm, height of wall 15 cm), and having a height of 40 cm, a mouse was put so as to be directed to the running route with a wall, and allowed to spontaneously enter into the plus maze. Each test substance was dissolved in saline or 0.005 N HCl in saline, and subcutaneously administered on the back 30 minutes before the start of the test. At the time of the start of the test, video recording with a video camera was started, the time at which the mouse entered into the plus maze is considered to be the start of the test, and exploratory behavior was recorded for 5 minutes. On the basis of the video image, staying times in the running routes were determined, and wall-less running route staying time ratio (%) was calculated.
# hERG potassium channel = target: T2, hERG potassium channel (Homo sapiens, UniProt Q12809); experiment: hERG potassium channel inhibition test (automatic patch clamp); assay type: cell-based; conditions: pH 7.4, hERG-expressing CHO cells, tail current, read-out: hERG channel inhibitory action
# T2 construct: host or cells: CHO cells
# Experimental: hERG (Human Ether-A-Go-Go-Related Gene) Potassium Channel Inhibition Test
# The test was performed with Port-a-Patch automatic patch clump apparatus (Nanion Technologies) using hERG channel-stably expressing CHO cells (purchased from Channelopathy Foundation). The membrane potential of the cells was maintained at −80 mV, then there were applied a depolarization pulse at +20 mV for 1.5 seconds, and a following test pulse at −50 mV for 1.5 seconds at a frequency of 1 time per 10 seconds, and the hERG current was confirmed as a tail current induced by the test pulse. The test compound was dissolved in an extracellular fluid (137 mM NaCl, 4 mM KCl, 1.8 mM CaCl2, 1 mM MgCl2, 10 mM D(+)-glucose, 10 mM HEPES, pH 7.4), and the solution was refluxed at room temperature for 5 minutes. The inhibition ratio was obtained from the ratio of the tail current value observed after the compound was applied based on the tail current value observed before the compound was applied, which was taken as 100%.
# human opioid δ receptor = target: T3, human opioid δ receptor (Homo sapiens, UniProt P41143); experiment: Opioid receptor function test (Lance Ultra cAMP Kit), δ receptor; assay type: cell-based
# T3 construct: host or cells: CHO cells
# Experimental: as §1, §2, §3, §4
# human opioid κ receptor = target: T4, human opioid κ receptor (Homo sapiens, UniProt P41145); experiment: Opioid receptor function test (Lance Ultra cAMP Kit), κ receptor; assay type: cell-based; conditions: maximum reaction not reached; maximum concentration 10 μM; U-69593 = 100%
# T4 construct: host or cells: CHO cells
# Experimental: as §1, §2, §3, §4
# T3 sequence (P41143 whole entry): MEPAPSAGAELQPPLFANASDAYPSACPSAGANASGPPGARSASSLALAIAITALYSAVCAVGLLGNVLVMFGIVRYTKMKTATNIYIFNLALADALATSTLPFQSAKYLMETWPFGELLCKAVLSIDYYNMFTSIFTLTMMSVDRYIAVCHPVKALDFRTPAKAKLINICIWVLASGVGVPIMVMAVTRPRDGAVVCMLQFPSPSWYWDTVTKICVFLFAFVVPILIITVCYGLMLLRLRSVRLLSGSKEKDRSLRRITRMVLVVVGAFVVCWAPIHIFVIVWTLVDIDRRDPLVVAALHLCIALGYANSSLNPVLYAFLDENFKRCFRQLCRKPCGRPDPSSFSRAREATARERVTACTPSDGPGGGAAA
# T2 sequence (Q12809 whole entry): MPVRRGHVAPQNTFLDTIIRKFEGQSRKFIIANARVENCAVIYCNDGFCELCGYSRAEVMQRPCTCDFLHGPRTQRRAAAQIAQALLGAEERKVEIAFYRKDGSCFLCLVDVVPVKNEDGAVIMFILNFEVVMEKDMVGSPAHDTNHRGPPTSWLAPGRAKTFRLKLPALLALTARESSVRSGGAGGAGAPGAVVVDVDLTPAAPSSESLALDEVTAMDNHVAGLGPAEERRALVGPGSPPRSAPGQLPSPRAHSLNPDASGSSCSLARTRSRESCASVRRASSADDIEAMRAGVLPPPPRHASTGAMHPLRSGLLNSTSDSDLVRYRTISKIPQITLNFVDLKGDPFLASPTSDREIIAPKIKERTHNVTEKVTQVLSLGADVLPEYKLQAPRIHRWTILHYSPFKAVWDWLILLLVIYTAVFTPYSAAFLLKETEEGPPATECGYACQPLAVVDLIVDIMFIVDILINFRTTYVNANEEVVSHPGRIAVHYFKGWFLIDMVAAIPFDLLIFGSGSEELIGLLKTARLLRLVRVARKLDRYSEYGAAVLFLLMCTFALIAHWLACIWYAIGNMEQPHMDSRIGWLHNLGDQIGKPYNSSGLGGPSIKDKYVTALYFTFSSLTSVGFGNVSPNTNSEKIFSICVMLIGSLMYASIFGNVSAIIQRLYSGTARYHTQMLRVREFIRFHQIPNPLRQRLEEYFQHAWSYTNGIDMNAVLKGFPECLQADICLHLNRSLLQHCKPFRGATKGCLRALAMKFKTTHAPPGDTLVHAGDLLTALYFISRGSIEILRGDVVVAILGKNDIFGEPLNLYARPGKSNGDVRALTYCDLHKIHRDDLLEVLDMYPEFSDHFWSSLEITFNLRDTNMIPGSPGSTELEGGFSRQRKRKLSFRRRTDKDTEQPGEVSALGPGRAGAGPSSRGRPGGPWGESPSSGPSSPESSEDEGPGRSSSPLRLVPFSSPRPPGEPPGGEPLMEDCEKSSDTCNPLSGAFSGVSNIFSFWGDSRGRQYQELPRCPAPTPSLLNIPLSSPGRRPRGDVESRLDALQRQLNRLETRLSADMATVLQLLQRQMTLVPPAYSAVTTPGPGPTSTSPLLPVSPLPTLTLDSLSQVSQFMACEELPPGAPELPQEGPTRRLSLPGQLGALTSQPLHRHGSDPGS
# T1 sequence (P35372 whole entry): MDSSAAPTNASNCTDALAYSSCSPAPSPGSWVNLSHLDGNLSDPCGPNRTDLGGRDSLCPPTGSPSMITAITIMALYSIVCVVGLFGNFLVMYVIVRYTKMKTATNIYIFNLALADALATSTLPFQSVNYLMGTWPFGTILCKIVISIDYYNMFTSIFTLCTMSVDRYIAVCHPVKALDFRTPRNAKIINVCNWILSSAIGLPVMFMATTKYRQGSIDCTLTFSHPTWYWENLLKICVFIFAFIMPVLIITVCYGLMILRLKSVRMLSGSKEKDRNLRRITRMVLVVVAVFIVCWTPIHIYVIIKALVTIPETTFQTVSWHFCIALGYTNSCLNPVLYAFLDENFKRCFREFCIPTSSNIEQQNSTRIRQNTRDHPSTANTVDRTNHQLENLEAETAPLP
# T4 sequence (P41145 whole entry): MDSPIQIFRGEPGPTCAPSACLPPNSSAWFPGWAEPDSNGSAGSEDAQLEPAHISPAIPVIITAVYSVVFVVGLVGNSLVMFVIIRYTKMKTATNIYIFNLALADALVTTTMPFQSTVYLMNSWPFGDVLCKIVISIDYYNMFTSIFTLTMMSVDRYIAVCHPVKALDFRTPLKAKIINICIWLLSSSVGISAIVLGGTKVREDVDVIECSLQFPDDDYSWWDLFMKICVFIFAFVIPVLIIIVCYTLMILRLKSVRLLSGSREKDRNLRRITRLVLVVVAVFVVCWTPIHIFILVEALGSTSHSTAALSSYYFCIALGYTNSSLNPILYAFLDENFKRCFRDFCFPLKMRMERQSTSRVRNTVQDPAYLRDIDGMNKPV
smiles,measurement,setting,value
"Cn1c(C(=O)N2C[C@H]3C[C@@]45CC[C@@H]2[C@@H]3[C@@]42CCN(CC3CC3)[C@@H]5Cc3ccc(O)cc32)cccc1=O [Example 10, 6-((1S,3aR,5aS,6R,11bR,11cS)-14-(cyclopropylmethyl)-10-hydroxy-2,3,3a,4,5,6,7,11c-octahydro-1H-6,11b-(epiminoethano)-1,5a-methanonaphtho[1,2-e]indole-3-carbonyl)-1-methylpyridin-2(1H)-one]",CLint scaled,Metabolic stability test,13 mL/min/kg
same,wall-less running route staying time ratio,Wistar male rats,significantly increased
same,"μ receptor reaction rate at the maximum concentration (reference value, marked *)",human opioid μ receptor,6.0* %
same,wall-less running route staying time ratio,C57BL/6N male mice,tendency of increasing
same,"inhibition at 5 min, 10 µM",hERG potassium channel,< 50%
same,EC50,"human opioid δ receptor; CHO cells expressing human δ receptor, cAMP, in the presence of forskolin",< 3 nM
same,Emax,human opioid δ receptor; ratio to maximum reaction of control drug SNC80 taken as 100%,74%
same,"κ receptor reaction rate at the maximum concentration (reference value, marked *)",human opioid κ receptor,−0.7* %
